This is an account of results in ChEMBL document CHEMBL4334513, “Discovery of a Potent, Selective, and Orally Available MTHFD2 Inhibitor (DS18561882) with in Vivo Antitumor Activity” (J Med Chem, 2019).

Molecules are shown by their SMILES. Where only a bound is given, the exact number is not on record here.

Tested on in the first data set: not listed separately
Description: Effective permeability of compound at pH 7.4 by PAMPA. The following applies: read-out: Peff. It counts as ADME.
For the compound `Cc1cc(C(=O)N2CCc3c(c(=O)oc4c(C)c(N5CCN(C)CC5)ccc34)C2)ccc1NS(C)(=O)=O`, the Papp is 23.1 ×10⁻⁶ cm/s.
Turning to `Cc1c(N2CCN(C)CC2)ccc2c3c(c(=O)oc12)CN(C(=O)c1ccc(NS(C)(=O)=O)c(OC(F)(F)F)c1)CC3`, the Papp amounted to 43.7 ×10⁻⁶ cm/s.
Same read-out and setting: the figure for `Cc1c(N2CCN(C)CC2)ccc2c3c(c(=O)oc12)CN(C(=O)c1ccc(NS(C)(=O)=O)c(Br)c1)CC3` is above 50 ×10⁻⁶ cm/s.
Still for that read-out and setting: the figure for `Cc1c(N2CCN(C)CC2)ccc2c3c(c(=O)oc12)CN(C(=O)c1ccc(NS(C)(=O)=O)cc1)CC3` is 5.4 ×10⁻⁶ cm/s; for `Cc1c(N2CCN(C)CC2)ccc2c3c(c(=O)oc12)CN(C(=O)c1ccc(NS(C)(=O)=O)c(F)c1)CC3` it is 16.9 ×10⁻⁶ cm/s.
On the same count and under the same terms, the figure for `Cc1c(N2CCN(C)CC2)ccc2c3c(c(=O)oc12)CN(C(=O)c1ccc2c(c1)CS(=O)(=O)N2)CC3.O=C(O)C(F)(F)F` is below 0.1 ×10⁻⁶ cm/s; for `Cc1c(N2CCN(C)CC2)ccc2c3c(c(=O)oc12)CN(C(=O)c1cc(Cl)cc(NS(C)(=O)=O)c1)CC3` it is 6.6 ×10⁻⁶ cm/s.
Consider `COc1cc(C(=O)N2CCc3c(c(=O)oc4c(C)c(N5CCN(C)CC5)ccc34)C2)ccc1NS(C)(=O)=O`, for which the Papp was 44.2 ×10⁻⁶ cm/s.

Tested on in another data set: not listed separately
Description: Lipophilicity, logD of compound. The class given is physicochemical. The following applies: octanol/water.
Turning to `Cc1c(N2C[C@@H](C)N(C)[C@@H](C)C2)ccc2c3c(c(=O)oc12)CN(C(=O)c1ccc(NS(C)(=O)=O)c(Cl)c1)CC3`, the log distribution coefficient (logD) stood at 1.7.
`Cc1c(N2CCN(C)[C@@H](C)C2)ccc2c3c(c(=O)oc12)CN(C(=O)c1ccc(NS(C)(=O)=O)c(Cl)c1)CC3` had a logD of 1.6.

Tested on in another data set: not listed separately
The data set is described as follows: Lipophilicity, logP of compound. It counts as physicochemical. The following applies: octanol/water.
Compound `Cc1c(N2C[C@@H](C)N(C)[C@@H](C)C2)ccc2c3c(c(=O)oc12)CN(C(=O)c1ccc(NS(C)(=O)=O)c(Cl)c1)CC3` yielded a logP of 2.2.
The same measure, in the same setting: the figure for `Cc1cc(C(=O)N2CCc3c(c(=O)oc4c(C)c(N5CCN(C)CC5)ccc34)C2)ccc1NS(C)(=O)=O` is 1.8.
For the compound `Cc1c(N2CCN(C)CC2)ccc2c3c(c(=O)oc12)CN(C(=O)c1ccc(NS(C)(=O)=O)c(OC(F)(F)F)c1)CC3`, the logP was 1.9.
`Cc1c(N2CCN(C)[C@@H](C)C2)ccc2c3c(c(=O)oc12)CN(C(=O)c1ccc(NS(C)(=O)=O)c(Cl)c1)CC3`: the logP was 2.
Same read-out and setting: the figure for `Cc1c(N2CCN(C)CC2)ccc2c3c(c(=O)oc12)CN(C(=O)c1ccc(NS(C)(=O)=O)c(Br)c1)CC3` is 1.9; for `Cc1c(N2CCN(C)CC2)ccc2c3c(c(=O)oc12)CN(C(=O)c1ccc(NS(C)(=O)=O)cc1)CC3` it is 1.6; for `Cc1c(N2CCN(C)CC2)ccc2c3c(c(=O)oc12)CN(C(=O)c1ccc(NS(C)(=O)=O)c(F)c1)CC3` it is 1.7.
On the same count and under the same terms, the figure for `Cc1c(N2CCN(C)CC2)ccc2c3c(c(=O)oc12)CN(C(=O)c1ccc2c(c1)CS(=O)(=O)N2)CC3.O=C(O)C(F)(F)F` is 1.6; for `Cc1c(N2CCN(C)CC2)ccc2c3c(c(=O)oc12)CN(C(=O)c1cc(Cl)cc(NS(C)(=O)=O)c1)CC3` it is 1.8.
Compound `COc1cc(C(=O)N2CCc3c(c(=O)oc4c(C)c(N5CCN(C)CC5)ccc34)C2)ccc1NS(C)(=O)=O` had a logP of 1.6.

The next data set addresses T1, C-1-tetrahydrofolate synthase, cytoplasmic (Homo sapiens, UniProt P11586).
T1 sequence (P11586 whole entry): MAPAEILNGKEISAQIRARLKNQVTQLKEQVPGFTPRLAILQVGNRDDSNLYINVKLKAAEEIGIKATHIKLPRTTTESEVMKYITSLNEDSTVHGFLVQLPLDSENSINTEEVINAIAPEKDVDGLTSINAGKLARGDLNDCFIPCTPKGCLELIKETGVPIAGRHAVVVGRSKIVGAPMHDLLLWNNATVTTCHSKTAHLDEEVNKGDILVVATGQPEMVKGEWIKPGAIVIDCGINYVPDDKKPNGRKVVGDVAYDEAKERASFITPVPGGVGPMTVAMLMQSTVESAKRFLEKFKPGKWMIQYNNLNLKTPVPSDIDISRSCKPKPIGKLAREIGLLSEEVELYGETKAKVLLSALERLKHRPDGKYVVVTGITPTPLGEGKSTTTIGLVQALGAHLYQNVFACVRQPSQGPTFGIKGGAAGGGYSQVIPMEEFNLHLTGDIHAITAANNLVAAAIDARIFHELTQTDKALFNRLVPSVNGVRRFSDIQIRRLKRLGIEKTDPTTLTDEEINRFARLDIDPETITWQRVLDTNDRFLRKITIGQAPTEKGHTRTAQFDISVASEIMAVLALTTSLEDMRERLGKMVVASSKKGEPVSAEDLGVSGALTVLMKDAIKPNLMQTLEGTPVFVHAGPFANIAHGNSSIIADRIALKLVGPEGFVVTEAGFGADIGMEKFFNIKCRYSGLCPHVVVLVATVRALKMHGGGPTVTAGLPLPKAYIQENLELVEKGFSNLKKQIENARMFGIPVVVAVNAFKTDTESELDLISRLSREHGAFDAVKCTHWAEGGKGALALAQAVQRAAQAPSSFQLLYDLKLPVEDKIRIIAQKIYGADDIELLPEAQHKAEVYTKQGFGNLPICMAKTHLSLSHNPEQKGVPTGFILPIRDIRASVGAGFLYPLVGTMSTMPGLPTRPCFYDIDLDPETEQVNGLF
Conditions: not given
In turn, `Cc1cc(C(=O)N2CCc3c(c(=O)oc4c(C)c(N5CCN(C)CC5)ccc34)C2)ccc1NS(C)(=O)=O` returned an IC50 above 30000 nM.
On the same count and under the same terms, the figure for `Cc1c(N2CCN(C)CC2)ccc2c3c(c(=O)oc12)CN(C(=O)c1ccc(NS(C)(=O)=O)c(Br)c1)CC3` is 4200 nM.
In the case of `Cc1c(N2CCN(C)CC2)ccc2c3c(c(=O)oc12)CN(C(=O)c1ccc(NS(C)(=O)=O)cc1)CC3`, the IC50 is above 30000 nM.
In the case of `Cc1c(N2CCN(C)CC2)ccc2c3c(c(=O)oc12)CN(C(=O)c1ccc(NS(C)(=O)=O)c(F)c1)CC3`, it took 8000 nM to reach half-maximal inhibition (IC50).
Same read-out and setting: the figure for `Cc1c(N2CCN(C)CC2)ccc2c3c(c(=O)oc12)CN(C(=O)c1ccc2c(c1)CS(=O)(=O)N2)CC3.O=C(O)C(F)(F)F` is 5200 nM; for `Cc1c(N2CCN(C)CC2)ccc2c3c(c(=O)oc12)CN(C(=O)c1cc(Cl)cc(NS(C)(=O)=O)c1)CC3` it is above 30000 nM; for `COc1cc(C(=O)N2CCc3c(c(=O)oc4c(C)c(N5CCN(C)CC5)ccc34)C2)ccc1NS(C)(=O)=O` it is above 30000 nM.

Tested on in a further data set: not listed separately
The data set is described as follows: Dissociation constant, acidic pKa of compound. The class given is physicochemical.
Conditions: not given
The compound `Cc1cc(C(=O)N2CCc3c(c(=O)oc4c(C)c(N5CCN(C)CC5)ccc34)C2)ccc1NS(C)(=O)=O` displayed a pKa of 8.3.
Same read-out and setting: the figure for `Cc1c(N2CCN(C)CC2)ccc2c3c(c(=O)oc12)CN(C(=O)c1ccc(NS(C)(=O)=O)c(OC(F)(F)F)c1)CC3` is 6.8; for `Cc1c(N2CCN(C)CC2)ccc2c3c(c(=O)oc12)CN(C(=O)c1ccc(NS(C)(=O)=O)c(Br)c1)CC3` it is 6.8.
In turn, `Cc1c(N2CCN(C)CC2)ccc2c3c(c(=O)oc12)CN(C(=O)c1ccc(NS(C)(=O)=O)cc1)CC3` had a pKa of 8.2.
Still for that read-out and setting: the figure for `Cc1c(N2CCN(C)CC2)ccc2c3c(c(=O)oc12)CN(C(=O)c1ccc(NS(C)(=O)=O)c(F)c1)CC3` is 6.9; for `Cc1c(N2CCN(C)CC2)ccc2c3c(c(=O)oc12)CN(C(=O)c1ccc2c(c1)CS(=O)(=O)N2)CC3.O=C(O)C(F)(F)F` it is 5.7; for `COc1cc(C(=O)N2CCc3c(c(=O)oc4c(C)c(N5CCN(C)CC5)ccc34)C2)ccc1NS(C)(=O)=O` it is 8.4.

Another data set has as its target T2, Bifunctional methylenetetrahydrofolate dehydrogenase/cyclohydrolase, mitochondrial (Homo sapiens, UniProt P13995).
T2 sequence (P13995 whole entry): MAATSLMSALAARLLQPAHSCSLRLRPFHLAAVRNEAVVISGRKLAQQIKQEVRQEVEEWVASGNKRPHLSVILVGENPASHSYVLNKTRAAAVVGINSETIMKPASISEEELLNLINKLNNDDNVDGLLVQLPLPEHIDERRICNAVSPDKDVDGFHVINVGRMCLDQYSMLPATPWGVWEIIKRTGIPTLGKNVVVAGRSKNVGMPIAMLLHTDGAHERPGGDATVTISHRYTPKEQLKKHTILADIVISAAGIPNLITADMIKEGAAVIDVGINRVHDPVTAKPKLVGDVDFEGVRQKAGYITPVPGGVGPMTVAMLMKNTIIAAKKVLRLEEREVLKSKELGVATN
The data set is described as follows: Inhibition of recombinant MTHFD2 (unknown origin) using THF as substrate incubated for 30 mins in presence of NAD.
Conditions: not given
On to `Cc1cc(C(=O)N2CCc3c(c(=O)oc4c(C)c(N5CCN(C)CC5)ccc34)C2)ccc1NS(C)(=O)=O`, for which the IC50 came to 530 nM.
Same read-out and setting: the figure for `Cc1c(N2CCN(C)CC2)ccc2c3c(c(=O)oc12)CN(C(=O)c1ccc(NS(C)(=O)=O)c(Br)c1)CC3` is 33 nM.
Same read-out and setting: the figure for `Cc1c(N2CCN(C)CC2)ccc2c3c(c(=O)oc12)CN(C(=O)c1ccc(NS(C)(=O)=O)cc1)CC3` is 200 nM; for `Cc1c(N2CCN(C)CC2)ccc2c3c(c(=O)oc12)CN(C(=O)c1ccc(NS(C)(=O)=O)c(F)c1)CC3` it is 38 nM.
Still for that read-out and setting: the figure for `Cc1c(N2CCN(C)CC2)ccc2c3c(c(=O)oc12)CN(C(=O)c1ccc2c(c1)CS(=O)(=O)N2)CC3.O=C(O)C(F)(F)F` is 18 nM.
For the compound `Cc1c(N2CCN(C)CC2)ccc2c3c(c(=O)oc12)CN(C(=O)c1cc(Cl)cc(NS(C)(=O)=O)c1)CC3`, the IC50 was found to be 89 nM.
On the same count and under the same terms, the figure for `COc1cc(C(=O)N2CCc3c(c(=O)oc4c(C)c(N5CCN(C)CC5)ccc34)C2)ccc1NS(C)(=O)=O` is 400 nM.

Tested on in a further data set: not listed separately
The data set is described as follows: Antiproliferative activity against human MDA-MB-231-luc-D3H2LN cells assessed as inhibition of growth after 3 days by CellTiter Glo assay. The class given is functional. The following applies: 72 h.
Regarding `Cc1c(N2C[C@@H](C)N(C)[C@@H](C)C2)ccc2c3c(c(=O)oc12)CN(C(=O)c1ccc(NS(C)(=O)=O)c(Cl)c1)CC3`, the GI50 stood at 760 nM.
On the same count and under the same terms, the figure for `Cc1cc(C(=O)N2CCc3c(c(=O)oc4c(C)c(N5CCN(C)CC5)ccc34)C2)ccc1NS(C)(=O)=O` is 7700 nM; for `Cc1c(N2CCN(C)CC2)ccc2c3c(c(=O)oc12)CN(C(=O)c1ccc(NS(C)(=O)=O)c(OC(F)(F)F)c1)CC3` it is 380 nM; for `Cc1c(N2CCN(C)[C@@H](C)C2)ccc2c3c(c(=O)oc12)CN(C(=O)c1ccc(NS(C)(=O)=O)c(Cl)c1)CC3` it is 200 nM.
The same measure, in the same setting: the figure for `Cc1c(N2CCN(C)CC2)ccc2c3c(c(=O)oc12)CN(C(=O)c1ccc(NS(C)(=O)=O)c(Br)c1)CC3` is 1600 nM; for `Cc1c(N2CCN(C)CC2)ccc2c3c(c(=O)oc12)CN(C(=O)c1ccc(NS(C)(=O)=O)cc1)CC3` it is 6300 nM; for `Cc1c(N2CCN(C)CC2)ccc2c3c(c(=O)oc12)CN(C(=O)c1ccc(NS(C)(=O)=O)c(F)c1)CC3` it is 2000 nM.
Still for that read-out and setting: the figure for `Cc1c(N2CCN(C)CC2)ccc2c3c(c(=O)oc12)CN(C(=O)c1ccc2c(c1)CS(=O)(=O)N2)CC3.O=C(O)C(F)(F)F` is 19000 nM.
As to `Cc1c(N2CCN(C)CC2)ccc2c3c(c(=O)oc12)CN(C(=O)c1cc(Cl)cc(NS(C)(=O)=O)c1)CC3`, the GI50 was 5500 nM.
On the same count and under the same terms, the figure for `COc1cc(C(=O)N2CCc3c(c(=O)oc4c(C)c(N5CCN(C)CC5)ccc34)C2)ccc1NS(C)(=O)=O` is 10000 nM.
